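Growth conditions: 96-well plates. Treatment: test compound, 48 hours, 5 concentrations. Analysis: linear interpolation between bracketing concentrations; unreached endpoints set to highest concentration. GI50: concentration for 50% inhibition of growth.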 Calls of active or inactive are those of the source. Cut-off read from the data, not from the text of the source: active = GI50 up to about 1.1 µM and inactive = higher.
Assays:
Test in all cases: NCI-60 cell line screen, 48 h
HT-29 = test system: HT-29
A498 = test system: A498
HOP-62 = test system: HOP-62
U-251 = test system: U-251
K562 = test system: K562
HCT-15 = test system: HCT-15
MDA-N = test system: MDA-N
SNB-19 = test system: SNB-19
M14 = test system: M14
NCI-H23 = test system: NCI-H23
UACC-62 = test system: UACC-62
ACHN = test system: ACHN
RPMI-8226 = test system: RPMI-8226
HL-60 = test system: HL-60
SF-268 = test system: SF-268
UO-31 = test system: UO-31
BT-549 = test system: BT-549
CAKI-1 = test system: CAKI-1
LOX IMVI = test system: LOX IMVI
Malme-3M = test system: Malme-3M

Structure (SMILES) | GI50 (HT-29) | GI50 (A498) | GI50 (HOP-62) | GI50 (U-251) | GI50 (K562) | GI50 (HCT-15) [µM] | GI50 (MDA-N) | GI50 (SNB-19) | GI50 (M14) | GI50 (NCI-H23) | GI50 (UACC-62) | GI50 (ACHN) | GI50 (RPMI-8226) | GI50 (HL-60) | GI50 (SF-268) | GI50 (UO-31) | GI50 (BT-549) | GI50 (CAKI-1) | GI50 (LOX IMVI) | GI50 (Malme-3M)
CN(C)/C=N\c1nncc2[nH]nnc12 | > 100 µM (inactive) | > 100 µM (inactive) | > 100 µM (inactive) | > 100 µM (inactive) | > 100 µM (inactive) | > 100 | > 100 µM (inactive) | > 100 µM (inactive) | > 100 µM (inactive) | > 100 µM (inactive) | > 100 µM (inactive) | > 100 µM (inactive) | > 100 µM (inactive) | 5.97 µM (inactive) | > 100 µM (inactive) | > 100 µM (inactive) | > 100 µM (inactive) | > 100 µM (inactive) |  | 
CC[N+](C)(CC)Cc1ccccc1[N+](=O)[O-] | 36.1 µM (inactive) | 41.2 µM (inactive) | 48.4 µM (inactive) | 53.7 µM (inactive) | > 100 µM (inactive) | > 100 | > 100 µM (inactive) |  | > 100 µM (inactive) | > 100 µM (inactive) | > 100 µM (inactive) | > 100 µM (inactive) | > 100 µM (inactive) | > 100 µM (inactive) | 59.4 µM (inactive) | > 100 µM (inactive) | 36 µM (inactive) | > 100 µM (inactive) | > 100 µM (inactive) | > 100 µM (inactive)
CCC(=O)Oc1ccc2c(c1)c(=O)c1c(NCCCN(C)C)ccc3nnn2c31 | 0.69 µM (active) | 2.77 µM (inactive) | 1.53 µM (inactive) | 1.42 µM (inactive) | 0.726 µM (active) | 0.4 | 3.86 µM (inactive) | 2.06 µM (inactive) | 5.3 µM (inactive) | 3.35 µM (inactive) | 11.2 µM (inactive) | 0.385 µM (active) | 0.767 µM (active) |  | 1.8 µM (inactive) | 0.953 µM (active) | 12.3 µM (inactive) | 0.664 µM (active) | 1.03 µM (active) | 3.98 µM (inactive)
CC1OC(OC2C(O)COC(OC3C(C)OC(OC4C(OC(=O)[C@]56CCC(C)(C)C[C@@H]5C5=CCC7[C@@]8(C)C[C@H](O)[C@H](OC9OC(CO)C(O)C(O)C9O)[C@@](C)(CO)[C@@H]8CC[C@@]7(C)[C@]5(C)CC6)OCC(O)C4O)C(O)C3OC3OCC(O)C(O)C3O)C2O)C(O)C(O)C1O (stereo not given in full) |  | 14.3 µM (inactive) | 17.8 µM (inactive) | 20 µM (inactive) | 42.9 µM (inactive) | 28.8 | 18.8 µM (inactive) | 19.1 µM (inactive) | 11 µM (inactive) | 20.8 µM (inactive) | 22.3 µM (inactive) | 17.8 µM (inactive) | 39 µM (inactive) |  | 29.2 µM (inactive) | 5.19 µM (inactive) | 31.9 µM (inactive) | 10.7 µM (inactive) | 18.9 µM (inactive) | 34.4 µM (inactive)
O=c1c2sc3nc(NCCN4CCCCC4)ncc3c2ncn1-c1ccccc1 | 30.5 µM (inactive) | > 100 µM (inactive) | 42.1 µM (inactive) | 44.4 µM (inactive) | 47.1 µM (inactive) | 40.4 | 80.5 µM (inactive) | 67.9 µM (inactive) | 19.6 µM (inactive) | > 100 µM (inactive) | 82.2 µM (inactive) | 42 µM (inactive) | 80.4 µM (inactive) |  | 60 µM (inactive) | 19.7 µM (inactive) | 85.9 µM (inactive) | 33 µM (inactive) | 17.3 µM (inactive) | 20.1 µM (inactive)
CN(O)C(=O)Cc1ccc(OCc2cccc(Cl)c2)cc1 | > 100 µM (inactive) | 1.23 µM (inactive) | > 100 µM (inactive) | > 100 µM (inactive) | > 100 µM (inactive) | > 100 | > 100 µM (inactive) | > 100 µM (inactive) | > 100 µM (inactive) | > 100 µM (inactive) | > 100 µM (inactive) | > 100 µM (inactive) | > 100 µM (inactive) | > 100 µM (inactive) | > 100 µM (inactive) | > 100 µM (inactive) | > 100 µM (inactive) | > 100 µM (inactive) | > 100 µM (inactive) | 
FC(F)(F)c1ccc(C2ON=C(c3ccccc3)N2C23CC4CC(CC(C4)C2)C3)cc1 (stereo not given) | > 10 µM (inactive) | > 10 µM (inactive) | > 10 µM (inactive) | > 10 µM (inactive) | > 10 µM (inactive) | > 10 | > 10 µM (inactive) | > 10 µM (inactive) | > 10 µM (inactive) | > 10 µM (inactive) | > 10 µM (inactive) | > 10 µM (inactive) | > 10 µM (inactive) | > 10 µM (inactive) | > 10 µM (inactive) |  | > 10 µM (inactive) | > 10 µM (inactive) | > 10 µM (inactive) | > 10 µM (inactive)
CN1CC[C@@]2(c3cccc(O)c3)CC(=O)/C(=C/c3ccc(Cl)c(Cl)c3)[C@H]1C2 | 1.42 µM (inactive) | 13.6 µM (inactive) | 2.67 µM (inactive) | 1.38 µM (inactive) | 0.433 µM (active) | 1.98 | 1.87 µM (inactive) | 3.26 µM (inactive) | 2.25 µM (inactive) | 3.4 µM (inactive) |  | 1.67 µM (inactive) | 1.15 µM (inactive) | 1.52 µM (inactive) | 2.63 µM (inactive) | 2.07 µM (inactive) | 2.52 µM (inactive) |  | 1.48 µM (inactive) | 3.44 µM (inactive)
Cc1cc2c(cc1-c1cc3c(cc1C)C(C(C)C)=C(O)C(=O)/C3=C\Nc1c(C)n(C)n(-c3ccccc3)c1=O)/C(=C/Nc1c(C)n(C)n(-c3ccccc3)c1=O)C(=O)C(O)=C2C(C)C | > 100 µM (inactive) | > 100 µM (inactive) | 70.1 µM (inactive) | 28.2 µM (inactive) | > 100 µM (inactive) | > 100 | > 100 µM (inactive) | > 100 µM (inactive) | 50.1 µM (inactive) | > 100 µM (inactive) | > 100 µM (inactive) | 47.5 µM (inactive) | 71.9 µM (inactive) | 33.9 µM (inactive) | > 100 µM (inactive) | > 100 µM (inactive) | > 100 µM (inactive) | > 100 µM (inactive) |  | > 100 µM (inactive)
C[Si](C)(C)OC1c2[nH]c3ccccc3c2CN2C(=O)CCC12 (stereo not given) | > 100 µM (inactive) | > 100 µM (inactive) | > 100 µM (inactive) | > 100 µM (inactive) | > 100 µM (inactive) | > 100 | > 100 µM (inactive) | > 100 µM (inactive) | > 100 µM (inactive) |  | > 100 µM (inactive) | > 100 µM (inactive) | > 100 µM (inactive) | > 100 µM (inactive) | > 100 µM (inactive) | > 100 µM (inactive) | > 100 µM (inactive) | > 100 µM (inactive) | > 100 µM (inactive) | 
O=[N+]([O-])c1cccc(-c2csc(N/N=C3\NC/C(=C/c4ccc5c(c4)OCO5)S3)n2)c1 | 22.4 µM (inactive) | 15.2 µM (inactive) | 25.2 µM (inactive) | 33.4 µM (inactive) | 38.3 µM (inactive) | 35.7 | 30.4 µM (inactive) | 20.5 µM (inactive) | 23.3 µM (inactive) | 20.1 µM (inactive) | 18.8 µM (inactive) | 28.9 µM (inactive) | 37.7 µM (inactive) | 26.6 µM (inactive) | 23.3 µM (inactive) | 25.9 µM (inactive) | 25.1 µM (inactive) | 38.4 µM (inactive) | 50.7 µM (inactive) | 
